Results reported in patent publication US20230157952A1, “METHOD FOR IMPROVING THE STABILITY OF A PHARMACEUTICAL COMPOSITION COMPRISING A HIGH PENETRATION DRUG, AND THE PHARMACEUTICAL COMPOSITION OBTAINED THEREFROM” (Techfields Inc., priority 2020, published 2023).
Each block holds one molecule with its values, some of them ahead of it.

Legend:
[1] = Effect of concentration on the stability of the solution (purity over time); settings: in water at 25° C.
[2] = Effect of temperature (and pH) on the stability of the solution (purity); format: physicochemical; settings: 7% solution in water

SMILES: CCN(CC)CCOC(=O)Cc1c(C)n(C(=O)c2ccc(Cl)cc2)c2ccc(OC)cc12.Cl [2-(diethylamino)ethyl 1-(4-chlorobenzoyl)-5-methoxy-2-methyl-1H-indole-3-acetate•HCl]
Purity at Day 3 ([1]; 0.01 wt %): 84.2%
Purity at Day 7 ([1]; 0.01 wt %): 72.9%
Purity at Day 14 ([1]; 0.01 wt %): 61.3%
Purity at Day 21 ([1]; 0.01 wt %): 53.4%
Purity at Day 28 ([1]; 0.01 wt %): 45.5%
Purity at hr 0 ([1]; 0.01 wt %): 98.0%
Purity at Day 3 ([1]; 0.1 wt %): 96.3%
Purity at Day 7 ([1]; 0.1 wt %): 93.6%
Purity at Day 14 ([1]; 0.1 wt %): 88.9%
Purity at Day 21 ([1]; 0.1 wt %): 84.7%
Purity at Day 28 ([1]; 0.1 wt %): 78.7%
Purity at hr 0 ([1]; 0.1 wt %): 98.2%
Purity at Day 3 ([1]; 1 wt %): 97.2%
Purity at Day 7 ([1]; 1 wt %): 96.1%
Purity at Day 14 ([1]; 1 wt %): 94.0%
Purity at Day 21 ([1]; 1 wt %): 92.4%
Purity at Day 28 ([1]; 1 wt %): 91.2%
Purity at hr 0 ([1]; 1 wt %): 98.3%
Purity at Day 3 ([1]; 3 wt %): 97.8%
Purity at Day 7 ([1]; 3 wt %): 97.2%
Purity at Day 14 ([1]; 3 wt %): 96.0%
Purity at Day 21 ([1]; 3 wt %): 95.0%
Purity at Day 28 ([1]; 3 wt %): 94.1%
Purity at hr 0 ([1]; 3 wt %): 98.4%
Purity at Day 3 ([1]; 5 wt %): 98.3%
Purity at Day 7 ([1]; 5 wt %): 98.0%
Purity at Day 14 ([1]; 5 wt %): 97.7%
Purity at Day 21 ([1]; 5 wt %): 97.1%
Purity at Day 28 ([1]; 5 wt %): 96.5%
Purity at hr 0 ([1]; 5 wt %): 98.5%
Purity at Day 3 ([1]; 7 wt %): 98.4%
Purity at Day 7 ([1]; 7 wt %): 98.2%
Purity at Day 14 ([1]; 7 wt %): 98.0%
Purity at Day 21 ([1]; 7 wt %): 97.7%
Purity at Day 28 ([1]; 7 wt %): 97.4%
Purity at hr 0 ([1]; 7 wt %): 98.5%
Purity at Day 3 ([1]; 8 wt %): 98.4%
Purity at Day 7 ([1]; 8 wt %): 98.3%
Purity at Day 14 ([1]; 8 wt %): 98.0%
Purity at Day 21 ([1]; 8 wt %): 97.8%
Purity at Day 28 ([1]; 8 wt %): 97.4%
Purity at hr 0 ([1]; 8 wt %): 98.6%
Purity at Day 3 ([1]; 10 wt %): 98.4%
Purity at Day 7 ([1]; 10 wt %): 98.3%
Purity at Day 14 ([1]; 10 wt %): 98.2%
Purity at Day 21 ([1]; 10 wt %): 98.0%
Purity at Day 28 ([1]; 10 wt %): 97.6%
Purity at hr 0 ([1]; 10 wt %): 98.5%
Purity at Day 3 ([1]; 15 wt %): 98.4%
Purity at Day 7 ([1]; 15 wt %): 98.2%
Purity at Day 14 ([1]; 15 wt %): 98.1%
Purity at Day 21 ([1]; 15 wt %): 98.0%
Purity at Day 28 ([1]; 15 wt %): 97.5%
Purity at hr 0 ([1]; 15 wt %): 98.5%
Purity at Day 3 ([1]; 20 wt %): 98.4%
Purity at Day 7 ([1]; 20 wt %): 98.5%
Purity at Day 14 ([1]; 20 wt %): 98.2%
Purity at Day 21 ([1]; 20 wt %): 98.1%
Purity at Day 28 ([1]; 20 wt %): 97.7%
Purity at hr 0 ([1]; 20 wt %): 98.6%
Purity at Day 3 ([1]; 30 wt %): 98.5%
Purity at Day 7 ([1]; 30 wt %): 98.3%
Purity at Day 14 ([1]; 30 wt %): 98.0%
Purity at Day 21 ([1]; 30 wt %): 98.1%
Purity at Day 28 ([1]; 30 wt %): 97.5%
Purity at hr 0 ([1]; 30 wt %): 98.5%
Purity at Day 3 ([1]; 50 wt %): 98.5%
Purity at Day 7 ([1]; 50 wt %): 98.4%
Purity at Day 14 ([1]; 50 wt %): 98.1%
Purity at Day 21 ([1]; 50 wt %): 97.9%
Purity at Day 28 ([1]; 50 wt %): 97.6%
Purity at hr 0 ([1]; 50 wt %): 98.6%
Stability when the concentration is 0.1% or lower [1]: not stable
Stability of the solution at a temperature higher than 40° C. and a pH lower than 3 or greater than 6 [2]: not stable

Purity at Day 3 ([1]; 0.01 wt %): 83.4%
Purity at Day 7 ([1]; 0.01 wt %): 74.2%
Purity at Day 14 ([1]; 0.01 wt %): 58.4%
Purity at Day 21 ([1]; 0.01 wt %): 46.5%
Purity at Day 28 ([1]; 0.01 wt %): 37.5%
Purity at hr 0 ([1]; 0.01 wt %): 98.4%
Purity at Day 3 ([1]; 0.1 wt %): 96.7%
Purity at Day 7 ([1]; 0.1 wt %): 95.6%
Purity at Day 14 ([1]; 0.1 wt %): 91.5%
Purity at Day 21 ([1]; 0.1 wt %): 84.7%
Purity at Day 28 ([1]; 0.1 wt %): 80.5%
Purity at hr 0 ([1]; 0.1 wt %): 98.5%
Purity at Day 3 ([1]; 1 wt %): 96.6%
Purity at Day 7 ([1]; 1 wt %): 95.5%
Purity at Day 14 ([1]; 1 wt %): 92.9%
Purity at Day 21 ([1]; 1 wt %): 90.9%
Purity at Day 28 ([1]; 1 wt %): 89.1%
Purity at hr 0 ([1]; 1 wt %): 98.7%
Purity at Day 3 ([1]; 3 wt %): 96.5%
Purity at Day 7 ([1]; 3 wt %): 96.2%
Purity at Day 14 ([1]; 3 wt %): 94.8%
Purity at Day 21 ([1]; 3 wt %): 94.0%
Purity at Day 28 ([1]; 3 wt %): 92.7%
Purity at hr 0 ([1]; 3 wt %): 98.9%
Purity at Day 3 ([1]; 5 wt %): 98.4%
Purity at Day 7 ([1]; 5 wt %): 98.0%
Purity at Day 14 ([1]; 5 wt %): 97.8%
Purity at Day 21 ([1]; 5 wt %): 96.6%
Purity at Day 28 ([1]; 5 wt %): 95.4%
Purity at hr 0 ([1]; 5 wt %): 98.9%
Purity at Day 3 ([1]; 7 wt %): 98.6%
Purity at Day 7 ([1]; 7 wt %): 98.2%
Purity at Day 14 ([1]; 7 wt %): 98.2%
Purity at Day 21 ([1]; 7 wt %): 97.7%
Purity at Day 28 ([1]; 7 wt %): 97.5%
Purity at hr 0 ([1]; 7 wt %): 99.1%
Purity at Day 3 ([1]; 8 wt %): 98.7%
Purity at Day 7 ([1]; 8 wt %): 98.3%
Purity at Day 14 ([1]; 8 wt %): 97.9%
Purity at Day 21 ([1]; 8 wt %): 97.9%
Purity at Day 28 ([1]; 8 wt %): 97.6%
Purity at hr 0 ([1]; 8 wt %): 99.1%
Purity at Day 3 ([1]; 10 wt %): 98.8%
Purity at Day 7 ([1]; 10 wt %): 98.5%
Purity at Day 14 ([1]; 10 wt %): 98.3%
Purity at Day 21 ([1]; 10 wt %): 98.1%
Purity at Day 28 ([1]; 10 wt %): 97.5%
Purity at hr 0 ([1]; 10 wt %): 99.2%
Purity at Day 3 ([1]; 15 wt %): 98.7%
Purity at Day 7 ([1]; 15 wt %): 98.6%
Purity at Day 14 ([1]; 15 wt %): 98.4%
Purity at Day 21 ([1]; 15 wt %): 98.1%
Purity at Day 28 ([1]; 15 wt %): 97.8%
Purity at hr 0 ([1]; 15 wt %): 99.1%
Purity at Day 3 ([1]; 20 wt %): 98.8%
Purity at Day 7 ([1]; 20 wt %): 98.5%
Purity at Day 14 ([1]; 20 wt %): 98.2%
Purity at Day 21 ([1]; 20 wt %): 98.1%
Purity at Day 28 ([1]; 20 wt %): 97.7%
Purity at hr 0 ([1]; 20 wt %): 99.0%
Purity at Day 3 ([1]; 30 wt %): 98.7%
Purity at Day 7 ([1]; 30 wt %): 98.5%
Purity at Day 14 ([1]; 30 wt %): 98.3%
Purity at Day 21 ([1]; 30 wt %): 98.0%
Purity at Day 28 ([1]; 30 wt %): 97.8%
Purity at hr 0 ([1]; 30 wt %): 99.1%
Purity at Day 3 ([1]; 50 wt %): 98.8%
Purity at Day 7 ([1]; 50 wt %): 98.5%
Purity at Day 14 ([1]; 50 wt %): 98.2%
Purity at Day 21 ([1]; 50 wt %): 98.9%
Purity at Day 28 ([1]; 50 wt %): 97.8%
Purity at hr 0 ([1]; 50 wt %): 99.1%
Stability when the concentration is 0.1% or lower [1]: not stable
Stability of the solution at a temperature higher than 40° C. and a pH lower than 3 or greater than 6 [2]: not stable
SMILES: CCN(CC)CCOC(=O)Cc1sc(-c2ccccc2)nc1-c1ccc(Cl)cc1.Cl [2-(diethylamino)ethyl 4-(4-chlorophenyl)-2-phenyl-5-thiazoleacetate•HCl]
